Tested on: tamarin without a prior history of GBV-B infection
Test: Intrahepatic inoculation of synthetic GBV-B RNA into a tamarin; serum GBV-B RNA by real-time quantitative RT-PCR (TaqMan)
Assay type: in vivo, Saguinus oedipus
Conditions: about 60 μg RNA intrahepatic
Description: Plasmid DNA containing the GBV-B cDNA was purified by isopycnic centrifugation on a CsCl gradient and isolated by ethanol precipitation. The plasmid DNA was linearized at the 3′ terminus of the cDNA insert by digestion with Xho I. Two μg of the linearized DNA was used as template in an in vitro transcription reaction using the Ambion T7 MEGAscript Kit according to the manufacturer's instructions. The integrity of the resultant synthetic RNA product was confirmed by nondenaturing agarose gel electrophoresis.
Approximately 60 μg of RNA transcribed from the GBV-B cDNA clone was diluted in phosphate buffered saline and injected under direct visualization at laparotomy into the liver of a healthy tamarin without a prior history of GBV-B infection (Saguinus oedipus). Serum samples were collected from the animal weekly beginning at 2 weeks post-inoculation and tested for the presence of GBV-B RNA by real-time quantitative RT-PCR (TaqMan® assay).

With “GBV-B cDNA clone: synthetic RNA transcribed from the full-length 9.4 kb GBV-B cDNA clone containing the novel 3′ terminal sequence” the “GBV-B RNA in serum” value (week 2 postinoculation) was 8.3 × 10^3 Genome equivalents/ml, the “GBV-B RNA in serum” value (week 3 postinoculation) was 6.6 × 10^5 Genome equivalents/ml and the “GBV-B RNA in serum” value (week 4 postinoculation) was 4.6 × 10^8 Genome equivalents/ml.

From US7473772B2, “Chimeric GB virus B (GBV-B)” (The Board of Regents of The University of Texas System, priority 2003, dated 2009)
